The source of these data is article PMC9668969 (Nature Communications, 2022).

For this assay, the system named is ELIC R117A. Put plainly: Asymmetric liposome stopped-flow Tl+ flux assay, mutant. The class given is biochemical, Erwinia chrysanthemi. The following applies: 25 mol% outer leaflet POPG, 10 mM propylamine. Here is the method: We next tested the effect of mutations that directly interact with the phospholipid in the ELIC5 CA structure (R117, T259), or are near this site and previously shown to interact with cardiolipin (S202, R318A, T259A and W206F) (Fig. 6a)[14]. The mutations were tested as for WT by examining the effect of 25 mol% outer leaflet POPG in paired (no exchange versus exchange) samples (Supplementary Fig. 15). […] Despite the mutations having various effects on ELIC agonist responses, comparison of no exchange and exchange samples enabled assessment of the effect of POPG.
The fluorescence sequential-mixing stopped-flow liposomal flux measurements were carried using an SX20 stopped-flow spectrofluorometer (Applied Photophysics) and Pro-Data SX software[13],[30]. […]
Using propylamine as the agonist, the assay and analysis was carried out as previously described[13],[30]. […] After a variable delay of 10 ms to 25 s, the sample was then mixed 1:1 with a quenching buffer (90 mM NaNO3, 50 mM TlNO3, 10 mM HEPES, pH 7), and ANTS fluorescence (ex. 360 nm, fluorescence above 420 nm) was recorded for 1 s. […] The time course of desensitization was also fit to a double exponential and a weighted time constant was calculated as was done for the patch-clamp data using Origin 2019b. […]
Acceptor liposomes were prepared as described in the Stopped-flow fluorescence recordings section until completion of the extrusion step. […]

Regarding `CCCCCCCC/C=C\CCCCCCCC(=O)OC(COC(=O)CCCCCCCCCCCCCCC)COP(=O)(O)OCC(O)CO` (stereo not shown) [POPG, 1-palmitoyl-2-oleoyl-phosphatidylglycerol], the “POPG modulation (peak response and desensitization)” value is “both effects of POPG (increased peak response and decreased desensitization) are abolished”.
